# Experiments:
# bacteria = conditions: clavulanic acid alone; background statement in words; cited from earlier work
# serine β-lactamase = conditions: background statement in words; cited from earlier work
# [1] = target: N-acetylated, α-linked, acidic dipeptidase (NAALADase) (Homo sapiens, UniProt Q04609); experiment: inhibition of NAALADase by clavulanic acid (applicant's discovery, no method given); assay type: biochemical; conditions: statement in words, no data
# N-acetylated, α-linked, acidic dipeptidase (NAALADase), sequence (Q04609 whole entry): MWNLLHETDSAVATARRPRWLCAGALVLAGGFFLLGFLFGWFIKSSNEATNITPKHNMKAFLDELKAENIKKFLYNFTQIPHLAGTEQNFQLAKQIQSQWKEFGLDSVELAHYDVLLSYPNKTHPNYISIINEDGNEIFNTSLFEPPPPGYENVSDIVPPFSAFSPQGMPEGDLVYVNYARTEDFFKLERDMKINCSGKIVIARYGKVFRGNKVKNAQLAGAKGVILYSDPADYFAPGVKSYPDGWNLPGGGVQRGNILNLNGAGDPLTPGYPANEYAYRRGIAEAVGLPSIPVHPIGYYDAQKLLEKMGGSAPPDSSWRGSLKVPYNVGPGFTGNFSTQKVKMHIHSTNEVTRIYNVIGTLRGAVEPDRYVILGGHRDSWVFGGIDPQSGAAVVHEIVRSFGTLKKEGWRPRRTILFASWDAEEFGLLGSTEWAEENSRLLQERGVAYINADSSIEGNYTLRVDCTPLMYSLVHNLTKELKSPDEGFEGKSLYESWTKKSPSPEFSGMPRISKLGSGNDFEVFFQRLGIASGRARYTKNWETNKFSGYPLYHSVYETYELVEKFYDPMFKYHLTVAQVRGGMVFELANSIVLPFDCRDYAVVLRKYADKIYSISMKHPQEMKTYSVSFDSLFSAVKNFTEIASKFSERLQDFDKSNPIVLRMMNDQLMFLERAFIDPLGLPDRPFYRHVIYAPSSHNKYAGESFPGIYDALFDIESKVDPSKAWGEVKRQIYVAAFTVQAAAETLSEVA
smiles,measurement,setting,value
O=C(O)[C@H]1/C(=C/CO)O[C@@H]2CC(=O)N21 [clavulanic acid],antibacterial activity,bacteria,"only weak, though broad spectrum, antibacterial activity"
same,binding affinity for the serine β-lactamases,serine β-lactamase,very high binding affinity
same,"inhibition of ""serine"" β-lactamase",serine β-lactamase,potent inhibitor
same,inhibition of NAALADase,[1],potent inhibitor

# — patent publication US20040072815A1, “Antibiotic composition and method” (priority 2003, published 2004)
